Assays:
[1] = biological target: T1, Beta-2 adrenergic receptor (Cavia porcellus, UniProt Q8K4Z4); test: Agonist activity at adrenergic beta2 receptor in Hartley guinea pig tracheal ring at basal tone assessed as bronchorelaxation activity
[2] = biological target: T1, Beta-2 adrenergic receptor; test: Agonist activity at adrenergic beta2 receptor in Hartley guinea pig tracheal ring assessed as bronchorelaxation activity against histamine-induced contraction; design: species or system Trachea
[3] = biological target: Beta-2 adrenergic receptor (Cavia porcellus) (UniProt Q8K4Z4); test: Agonist activity at adrenergic beta2 receptor in Hartley guinea pig tracheal ring assessed as bronchorelaxation activity against histamine-induced contraction relative to isoproterenol; details: Trachea
Chain of Beta-2 adrenergic receptor (Cavia porcellus) (Q8K4Z4 whole entry, looked up): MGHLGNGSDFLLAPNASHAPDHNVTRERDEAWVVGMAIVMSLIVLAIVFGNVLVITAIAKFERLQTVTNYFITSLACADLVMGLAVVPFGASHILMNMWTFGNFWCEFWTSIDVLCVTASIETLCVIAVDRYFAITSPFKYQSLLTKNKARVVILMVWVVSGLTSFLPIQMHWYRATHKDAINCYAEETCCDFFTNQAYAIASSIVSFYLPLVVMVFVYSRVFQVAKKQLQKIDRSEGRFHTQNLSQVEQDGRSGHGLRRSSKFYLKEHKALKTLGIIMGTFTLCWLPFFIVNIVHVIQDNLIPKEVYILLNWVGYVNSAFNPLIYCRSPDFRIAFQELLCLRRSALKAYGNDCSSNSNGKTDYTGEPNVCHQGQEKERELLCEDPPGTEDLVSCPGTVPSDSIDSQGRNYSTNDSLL

T1 sequence (Q8K4Z4 whole entry): as the sequence (Q8K4Z4 whole entry, looked up) above

Structure (SMILES) | Kd [1] [nM] | Kd [2] [nM] | Efficacy [3] [%] | EC50 [2] [nM]
CC(C)NCC(O)c1ccc(O)c(O)c1 (configuration not stated) [ISOPROTERENOL] | 25.1 | 17.8 | – | –
CC(C)(C)NCC(O)c1ccc(O)c(CO)c1 (configuration not stated) | – | – | 68 | –
CC(C)C[B-]1(O)OCc2cc([C@@H](O)C[NH2+]C(C)(C)C)ccc2O1 (some centres not stated) | 5.13 | 28.2 | 94 | ≤ 280

— ChEMBL document CHEMBL3393004, “Insights on the role of boron containing moieties in the design of new potent and efficient agonists targeting the β2 adrenoceptor” (Bioorg Med Chem Lett, 2015)
